In ChEMBL document CHEMBL4351003, “Selective Toll-like receptor 7 agonists with novel chromeno[3,4-d]imidazol-4(1H)-one and 2-(trifluoromethyl)quinoline/ quinazoline-4-amine scaffolds” (Eur J Med Chem, 2019):
Calls of active or inactive are those of the source. No cut-off for these calls is given here.

Experiments:
[1] = biological target: T1, Toll-like receptor 7 (Homo sapiens) (UniProt Q9NYK1); assay: Antagonist activity at human TLR7 in HEK293 cells cotransfected with SEAP reporter gene assessed as activity of SEAP preincubated for 2 hrs followed by imiquimod addition further incubated for 24 hrs by quanti-blue staining based SEAP reporter gene assay; format: cell-based
T1 sequence (whole entry): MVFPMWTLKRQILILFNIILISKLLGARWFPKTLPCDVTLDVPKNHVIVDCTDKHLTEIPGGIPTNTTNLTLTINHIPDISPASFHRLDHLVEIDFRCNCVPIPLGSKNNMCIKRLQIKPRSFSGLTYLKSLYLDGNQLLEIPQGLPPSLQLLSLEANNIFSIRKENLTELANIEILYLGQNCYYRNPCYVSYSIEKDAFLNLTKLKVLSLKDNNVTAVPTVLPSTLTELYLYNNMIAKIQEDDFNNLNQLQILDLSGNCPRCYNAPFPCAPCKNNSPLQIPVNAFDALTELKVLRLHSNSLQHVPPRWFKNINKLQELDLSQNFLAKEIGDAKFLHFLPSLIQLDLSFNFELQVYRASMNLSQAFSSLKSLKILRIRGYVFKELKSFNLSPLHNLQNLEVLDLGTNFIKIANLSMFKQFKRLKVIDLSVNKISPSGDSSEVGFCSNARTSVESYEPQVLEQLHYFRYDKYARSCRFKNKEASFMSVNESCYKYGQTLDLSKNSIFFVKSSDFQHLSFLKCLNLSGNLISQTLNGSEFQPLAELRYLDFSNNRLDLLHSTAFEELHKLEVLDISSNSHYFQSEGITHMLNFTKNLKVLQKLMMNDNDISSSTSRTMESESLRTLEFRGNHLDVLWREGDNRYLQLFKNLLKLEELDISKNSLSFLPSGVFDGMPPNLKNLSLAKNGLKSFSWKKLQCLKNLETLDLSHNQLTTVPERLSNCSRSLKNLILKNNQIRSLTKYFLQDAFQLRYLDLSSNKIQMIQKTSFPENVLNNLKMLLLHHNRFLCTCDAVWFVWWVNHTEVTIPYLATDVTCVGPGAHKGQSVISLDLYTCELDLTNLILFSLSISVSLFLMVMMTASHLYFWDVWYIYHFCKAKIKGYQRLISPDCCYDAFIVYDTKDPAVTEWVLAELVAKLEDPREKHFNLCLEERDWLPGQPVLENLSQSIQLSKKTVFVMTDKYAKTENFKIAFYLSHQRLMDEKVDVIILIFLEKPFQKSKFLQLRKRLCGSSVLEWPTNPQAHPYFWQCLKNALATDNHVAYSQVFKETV

[2] = biological target: T2, Toll-like receptor 8 (Homo sapiens) (UniProt Q9NR97); assay: Agonist activity at human TLR8 in HEK293 cells cotransfected with SEAP reporter gene assessed as activity of SEAP incubated for 24 hrs by quanti-blue staining based SEAP reporter gene assay; format: cell-based
T2 sequence (whole entry): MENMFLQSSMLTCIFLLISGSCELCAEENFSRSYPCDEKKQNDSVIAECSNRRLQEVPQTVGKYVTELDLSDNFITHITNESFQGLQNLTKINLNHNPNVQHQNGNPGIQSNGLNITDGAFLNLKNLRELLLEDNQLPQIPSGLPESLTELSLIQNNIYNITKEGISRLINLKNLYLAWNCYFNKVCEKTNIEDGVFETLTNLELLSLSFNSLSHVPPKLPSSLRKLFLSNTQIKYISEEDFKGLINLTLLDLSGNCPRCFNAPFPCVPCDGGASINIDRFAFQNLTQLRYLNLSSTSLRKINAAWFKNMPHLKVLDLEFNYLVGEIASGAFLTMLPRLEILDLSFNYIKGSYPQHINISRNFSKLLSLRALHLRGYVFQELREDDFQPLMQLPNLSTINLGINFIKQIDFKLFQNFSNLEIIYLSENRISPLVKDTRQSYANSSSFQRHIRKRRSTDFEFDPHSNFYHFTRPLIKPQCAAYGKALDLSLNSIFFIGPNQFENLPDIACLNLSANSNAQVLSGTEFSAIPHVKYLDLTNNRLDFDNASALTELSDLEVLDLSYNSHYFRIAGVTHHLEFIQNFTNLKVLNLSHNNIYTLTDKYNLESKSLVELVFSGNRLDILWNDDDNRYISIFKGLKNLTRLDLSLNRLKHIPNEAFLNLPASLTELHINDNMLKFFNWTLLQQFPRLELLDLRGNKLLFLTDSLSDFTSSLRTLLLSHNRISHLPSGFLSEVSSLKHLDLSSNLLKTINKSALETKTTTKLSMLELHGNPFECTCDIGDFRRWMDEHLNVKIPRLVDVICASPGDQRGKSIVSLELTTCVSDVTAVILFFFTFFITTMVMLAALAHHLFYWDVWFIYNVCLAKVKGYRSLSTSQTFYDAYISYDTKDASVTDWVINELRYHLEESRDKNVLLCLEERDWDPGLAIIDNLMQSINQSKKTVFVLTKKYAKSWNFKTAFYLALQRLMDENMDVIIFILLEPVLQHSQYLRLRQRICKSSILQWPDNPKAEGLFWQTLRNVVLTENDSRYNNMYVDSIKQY

[3] = Cytotoxicity against human HEK293 cells transfected with human TLR7/8 assessed as reduction in cell viability incubated for 24 hrs by MTS assay; format: cell-based; conditions: read-out: MNCC
Toll-like receptor 7 = biological target: T3, Toll-like receptor 7 (Homo sapiens, UniProt Q9NYK1); assay: Agonist activity at human TLR7 in HEK293 cells cotransfected with SEAP reporter gene assessed as activity of SEAP incubated for 24 hrs by quanti-blue staining based SEAP reporter gene assay; format: cell-based
T3 sequence (Q9NYK1 whole entry): T1 sequence (whole entry)

PBMC [4] = assay: Induction of IL-8 production in human PBMC at 10 ug/ml incubated for 24 hrs by flow cytometry analysis; format: functional, cell-based
PBMC [5] = assay: Induction of IL-6 production in human PBMC at 10 ug/ml incubated for 24 hrs by flow cytometry analysis; format: functional, cell-based
PBMC [6] = assay: Induction of IL-12p70 production in human PBMC at 10 ug/ml incubated for 24 hrs by flow cytometry analysis; format: functional, cell-based
PBMC [7] = assay: Induction of TNFalpha production in human PBMC at 10 ug/ml incubated for 24 hrs by flow cytometry analysis; format: functional, cell-based

Activity [1] | Activity [2] | EC50 (Toll-like receptor 7; read-out: EC50) [µM] | EC50 (Toll-like receptor 7; hek293) | SMILES | MNTC at 24 h [3] [µM] | Activity (PBMC [4]) | Activity (PBMC [5]) | Activity (PBMC [6]) | Activity (PBMC [7])
Active | inactive | – | – | CC(C)Cn1cnc2c(=O)oc3ccccc3c21 | – | – | – | – | –
inactive | inactive | 29.9 | – | CCN(CC)c1ccc2c(c1)oc(=O)c1ncn(CC(C)C)c12 | 62.5 | – | – | – | –
inactive | inactive | 1.8 | – | CC(C)Cn1cnc2c(=O)oc3ccc(O)cc3c21 | 62.5 | inactive | inactive | inactive | inactive
– | – | – | Not Active | CC1CCCN(c2cc(C(F)(F)F)nc3ccccc23)C1 (stereo not given) | 31.3 | – | – | – | –
inactive | inactive | 4.4 | – | CC(C)CNc1nc(C(F)(F)F)nc2ccccc12 | 7.8 to 250 | – | – | – | –
– | – | – | Not Active | COCCn1cnc2c(=O)oc3ccccc3c21 | ≥ 250 | – | – | – | –
– | – | – | Not Active | CC(C)Cn1cnc2c(=O)oc3ccc(F)cc3c21 | ≥ 250 | – | – | – | –
inactive | inactive | 8.3 | – | FC(F)(F)c1nc(NC2CCCCC2)c2ccccc2n1 | 31.3 | Active | Active | inactive | inactive
inactive | inactive | 279 | – | COc1ccc2c(c1)oc(=O)c1ncn(CC(C)C)c12 | ≥ 250 | – | – | – | –
inactive | inactive | 6.3 | – | CC(C)CNc1cc(C(F)(F)F)nc2ccccc12 | 62.5 | Active | Active | inactive | inactive
inactive | inactive | 535 | – | Cc1ccc2oc(=O)c3ncn(CC(C)C)c3c2c1 | ≥ 250 | – | – | – | –
– | – | – | Not Active | C=CCn1cnc2c(=O)oc3ccccc3c21 | ≥ 250 | – | – | – | –
– | – | – | Not Active | COCCCn1cnc2c(=O)oc3ccccc3c21 | ≥ 250 | – | – | – | –
inactive | inactive | 4 | – | CC1CCCN(c2nc(C(F)(F)F)nc3ccccc23)C1 (stereo not given) | 62.5 | – | – | – | –
– | – | – | Not Active | Nc1nc(C(F)(F)F)nc2ccccc12 | 62.5 | – | – | – | –
inactive | inactive | 44 | – | CCCNc1nc(C(F)(F)F)nc2ccccc12 | 62.5 | – | – | – | –
– | – | – | Not Active | CN1CCN(c2nc(C(F)(F)F)nc3ccccc23)CC1 | 7.8 to 250 | – | – | – | –
– | – | – | Not Active | O=C(O)CNc1nc(C(F)(F)F)nc2ccccc12 | 31.3 | – | – | – | –
inactive | inactive | 10.9 | – | FC(F)(F)c1nc(NC2CCCC2)c2ccccc2n1 | 62.5 | – | – | – | –
– | – | – | Not Active | COc1ccc2oc(=O)c3ncn(CC(C)C)c3c2c1 | 62.5 | – | – | – | –

Activity [1] | Activity [2] | EC50 (Toll-like receptor 7; read-out: EC50) [µM] | EC50 (Toll-like receptor 7; hek293) | SMILES | MNTC at 24 h [3] [µM] | Activity (PBMC [4]) | Activity (PBMC [5]) | Activity (PBMC [6]) | Activity (PBMC [7])
inactive | inactive | 16.8 | – | FC(F)(F)c1nc(NC2CC2)c2ccccc2n1 | 125 | Active | Active | inactive | inactive
– | – | – | Not Active | FC(F)(F)c1nc(NCCc2cnc[nH]2)c2ccccc2n1 | 31.3 | – | – | – | –
inactive | inactive | 57.4 | – | CC(C)Nc1nc(C(F)(F)F)nc2ccccc12 | 62.5 | – | – | – | –
– | – | – | Not Active | CC(C)Cn1cnc2c(=O)oc3ccc([N+](=O)[O-])cc3c21 | 62.5 | – | – | – | –
inactive | inactive | 107 | – | CCCCn1cnc2c(=O)oc3ccccc3c21 | ≥ 250 | – | – | – | –
– | – | – | Not Active | CCn1cnc2c(=O)oc3ccc(F)cc3c21 | ≥ 250 | – | – | – | –
inactive | inactive | 15 | – | FC(F)(F)c1nc(NCC2CC2)c2ccccc2n1 | 31.3 | – | – | – | –
– | – | – | Not Active | FC(F)(F)c1nc(NCCN2CCCCC2)c2ccccc2n1 | 62.5 | – | – | – | –
– | – | – | Not Active | Nc1ccc(CNc2nc(C(F)(F)F)nc3ccccc23)cc1 | 15.6 | – | – | – | –
inactive | – | – | – | OCCNc1nc(C(F)(F)F)nc2ccccc12 | 125 | – | – | – | –
– | – | 6.2 to 8.2 | – | CC(C)Cn1cnc2c(N)nc3ccccc3c21 [IMIQUIMOD] | – | Active | – | inactive | inactive
inactive | inactive | 15.4 | – | FC(F)(F)c1nc(N2CCCC2)c2ccccc2n1 | 31.3 | – | – | – | –
– | – | – | Not Active | CC(C)n1cnc2c(=O)oc3ccccc3c21 | ≥ 250 | – | – | – | –
– | – | – | Not Active | FC(F)(F)c1nc(N2CCOCC2)c2ccccc2n1 | 125 | – | – | – | –
– | – | – | Not Active | CCCn1cnc2c(=O)oc3ccccc3c21 | ≥ 250 | – | – | – | –
– | – | – | Not Active | FC(F)(F)c1nc(Cl)c2ccccc2n1 | 31.3 | – | – | – | –
– | – | – | Not Active | Oc1nc(C(F)(F)F)nc2ccccc12 | 62.5 | – | – | – | –
inactive | inactive | 114 | – | CC(C)Cn1cnc2c(=O)oc3cc(O)ccc3c21 | ≥ 250 | – | – | – | –
inactive | inactive | 66.6 | – | FC(F)(F)c1nc(NC2CCN(C3CC3)CC2)c2ccccc2n1 | 125 | – | – | – | –
